Reference: patent US20080103162A1, “Antipruritics” (priority 2001, published 2008)

Key:
Format in all cases: in vivo
[1] = system: nociceptine receptor defective mice; assay: compound 48/80-induced scratching behavior in nociceptine receptor defective mice (Test Example 2); conditions: intravenous, five minutes before compound 48/80, FIG. 4(b)
male ddY mice = assay: compound 48/80-induced scratching behavior, intravenous administration (Test Example 1); conditions: intravenously administered five minutes before compound 48/80 (50 μg/0.1 ml, subcutaneous, back), FIG. 1 to FIG. 3
wild type mice = assay: compound 48/80-induced scratching behavior in wild type mice (Test Example 2); conditions: wild type mice (backcrossed with C57BL/6J); intravenous, five minutes before compound 48/80; FIG. 4(a)
male ICR mice [2] = assay: spontaneous scratching behavior of mice with cutaneous barrier disruption (Test Example 4); conditions: 0.1% in 100% ethanol, applied (100 μl) in vicinity of shaved portion, before vs after application, FIG. 6
Description: The rostral back portion of 5 weeks-old male ICR mice was shaved under etherization, and then cutaneous barrier was disrupted by carrying out a treatment of applying a mixed solution of acetone and ether (1:1) to the shaved portion and applying distilled water twice a day every day (10 days). […] The compound was applied (100 μl) in the vicinity of the shaved portion.

male ICR mice [3] = assay: eye scratching behavior induced by instillation of serotonin (Test Example 3); conditions: instillation of 10 μl of compound five minutes before 10 μl of 1% serotonin hydrochloride in right eye, FIG. 5
Description: After the instillation of 10 μl of 1% serotonin hydrochloride (hereinafter referred to as serotonin) in the right eye of 4-6 weeks-old male ICR mice, the number of scratching behavior in the vicinity of the eye induced by the instillation of serotonin for 10 minutes. […] Five minutes before the instillation of serotonin, the instillation of 10 μl of the compound was performed. In a control group, the instillation of distilled water was performed.

| Structure (SMILES) | scratching behavior suppressing effect (number of scratching behavior for 30 minutes) [1] | scratching behavior suppressing effect (number of scratching behavior for 30 minutes) (male ddY mice) | scratching behavior suppressing effect (number of scratching behavior for 30 minutes) (wild type mice) | suppression of spontaneous scratching behavior induced by cutaneous barrier disruption (number of scratching behavior for 30 minutes) (male ICR mice [2]) | suppression of eye scratching behavior induced by instillation of serotonin (number of scratching behavior for 10 minutes) (male ICR mice [3]) |
| --- | --- | --- | --- | --- | --- |
| COc1ccc2nc(NC(=O)c3ccc(Cl)cc3)nc(N[C@H]3CCCC[C@H]3NC(=N)N)c2c1.Cl.Cl [compound A, (1R,2S)—N-amidino-2-[2-(4-chlorobenzoylamino)-6-methoxyquinazolin-4-yl]aminocyclohexylamine dihydrochloride] | completely disappeared | strong scratching behavior suppressing effect | strong scratching behavior suppressing effect |  |  |
| CCc1ccc(OCc2ccccc2C(=O)Nc2ccc3nc(C)cc(N)c3c2)cc1.Cl [compound C, N-(4-amino-2-methyl-6-quinolyl)-2-[(4-ethylphenoxy)methyl]benzamide hydrochloride, reference compound] |  | strong scratching behavior suppressing effect |  |  |  |
| Cc1ccc2nc(NC(=O)c3ccc(Cl)cc3)nc(N[C@H]3CCCC[C@H]3NC(=N)N)c2c1.Cl.Cl [compound D, (1R,2S)—N-amidino-2-{[2-(4-chlorobenzoylamino)-6-methylquinazolin-4-yl]amino}cyclohexylamine dihydrochloride] |  |  |  | strongly suppressed | strongly suppressed |
